Experimental data taken from ChEMBL document CHEMBL1123693, “Amnesia-reversal activity of a series of cyclic imides” (1987).

Columns and labels:
Format in all cases: functional
Mus musculus [1] = experiment: Reversal of electroconvulsive shock induced amnesia in mice following 1 mg/Kg p.o.
Mus musculus [2] = experiment: Ability to reverse electroconvulsive shock (ECS) induced amnesia in mice, at a dose of 10 mg/Kg administered perorally
Mus musculus [3] = experiment: Reversal of electroconvulsive shock induced amnesia in mice following 100 mg/Kg p.o.
Mus musculus [4] = experiment: Ability to reverse electroconvulsive shock (ECS) induced amnesia in mice, at a dose of 1.25 mg/Kg administered perorally
Mus musculus [5] = experiment: Ability to reverse electroconvulsive shock (ECS) induced amnesia in mice, at a dose of 2.5 mg/Kg administered perorally
Mus musculus [6] = experiment: Ability to reverse electroconvulsive shock (ECS) induced amnesia in mice, at a dose of 5 mg/Kg administered perorally
Mus musculus [7] = experiment: Reversal of electroconvulsive shock induced amnesia in mice following 20 mg/Kg p.o.
Mus musculus [8] = experiment: Ability to reverse electroconvulsive shock (ECS) induced amnesia in mice, at a dose of 80 mg/Kg administered perorally
Mus musculus [9] = experiment: Ability to reverse electroconvulsive shock (ECS) induced amnesia in mice, at a dose of 10 mg/Kg administered perorally(Exp-1)
Mus musculus [10] = experiment: Ability to reverse electroconvulsive shock (ECS) induced amnesia in mice, at a dose of 100 mg/Kg administered perorally(Exp-2)
Mus musculus [11] = experiment: Ability to reverse electroconvulsive shock (ECS) induced amnesia in mice, at a dose of 10 mg/Kg administered perorally(Exp-2)
Mus musculus [12] = experiment: Ability to reverse electroconvulsive shock (ECS) induced amnesia in mice, at a dose of 1.0 mg/Kg administered perorally(Exp-2)
Mus musculus [13] = experiment: Ability to reverse electroconvulsive shock (ECS) induced amnesia in mice, at a dose of 1.0 mg/Kg administered perorally(Exp-1)
Mus musculus [14] = experiment: Ability to reverse electroconvulsive shock (ECS) induced amnesia in mice, at a dose of 100 mg/Kg administered perorally(Exp-1)
Mus musculus [15] = experiment: Ability to reverse electroconvulsive shock (ECS) induced amnesia in mice, at a dose of 0.6 mg/Kg administered perorally
Mus musculus [16] = experiment: Ability to reverse electroconvulsive shock (ECS) induced amnesia in mice, at a dose of 10 mg/kg administered perorally; settings: route oral
Mus musculus [17] = experiment: Ability to reverse electroconvulsive shock (ECS) induced amnesia in mice, at a dose of 1 mg/Kg administered perorally
Mus musculus [18] = experiment: Ability to reverse electroconvulsive shock (ECS) induced amnesia in mice, at a dose of 0.31 mg/Kg administered perorally
Mus musculus [19] = experiment: Ability to reverse electroconvulsive shock (ECS) induced amnesia in mice, at a dose of 320 mg/Kg administered perorally
Mus musculus [20] = experiment: Ability to reverse electroconvulsive shock (ECS) induced amnesia in mice, at a dose of 160 mg/Kg administered perorally
Mus musculus [21] = experiment: Ability to reverse electroconvulsive shock (ECS) induced amnesia in mice, at a dose of 0.63 mg/Kg administered perorally
Mus musculus [22] = experiment: Ability to reverse electroconvulsive shock (ECS) induced amnesia in mice, at a dose of 40 mg/Kg administered perorally

Compound NC(=O)CCC1CCC(=O)N1 (stereo unspecified) has a Reversal (Mus musculus [1]) of 64%, a Reversal (Mus musculus [2]) of 33% and a Reversal (Mus musculus [3]) of 64%.
In the case of O=C(O)CCC1CCCC(=O)N1 (stereo unspecified), the Reversal (Mus musculus [4]) is reported as 56%, the Reversal (Mus musculus [1]) is reported as 67% and the Reversal (Mus musculus [5]) is reported as 60%. It also gave a Reversal (Mus musculus [6]) of 86%, a Reversal (Mus musculus [7]) of 70% and a Reversal (Mus musculus [8]) of 8%.
Work on CC12CCC(=O)N1C(=O)CC2 yielded a Reversal (Mus musculus [6]) of 31%, a Reversal (Mus musculus [7]) of 77% and a Reversal (Mus musculus [8]) of 85%.
Compound O=C1CCC(CCC(=O)OCc2ccccc2Cl)N1 (stereo unspecified) has a Reversal (Mus musculus [9]) of 80%, a Reversal (Mus musculus [10]) of 31% and a Reversal (Mus musculus [11]) of 85%. It also gave a Reversal (Mus musculus [12]) of 15%, a Reversal (Mus musculus [13]) of 30% and a Reversal (Mus musculus [14]) of 70%.
O=C1CCC(CCC(=O)OCc2ccccc2)N1 (stereo unspecified) gave a Reversal (Mus musculus [4]) of 56%, a Reversal (Mus musculus [5]) of 67% and a Reversal (Mus musculus [6]) of 64%. It also gave a Reversal (Mus musculus [15]) of 44%, a Reversal (Mus musculus [7]) of 64% and a Reversal (Mus musculus [8]) of 71%.
O=C(O)CCCC1CCCC(=O)N1 (stereo unspecified) showed a Reversal (Mus musculus [6]) of 67%, a Reversal (Mus musculus [7]) of 100% and a Reversal (Mus musculus [8]) of 0%.
Work on COC(=O)CCC1CCC(=O)N1 (stereo unspecified) yielded a Reversal (Mus musculus [6]) of 75%, a Reversal (Mus musculus [7]) of 100% and a Reversal (Mus musculus [8]) of 75%.
Compound O=C1CCC(CCC(=O)NC23C[C@H]4C[C@@H](C2)C[C@@H](C3)C4)N1 (stereo partly specified) has a Reversal (Mus musculus [1]) of 57%, a Reversal (Mus musculus [2]) of 40% and a Reversal (Mus musculus [3]) of 57%.
CC(C)OC(=O)CCC1CCC(=O)N1 (stereo unspecified) was tested, and the Reversal (Mus musculus [1]) was 42%, the Reversal (Mus musculus [7]) was 42% and the Reversal (Mus musculus [3]) was 16%.
For CCOC(=O)CCC1CCC(=O)N1 (stereo unspecified), the Reversal (Mus musculus [6]) was 10%, the Reversal (Mus musculus [7]) was 0% and the Reversal (Mus musculus [8]) was 27%.
CC1CC2CCC(=O)N2C1=O (stereo unspecified) was tested, and the Reversal (Mus musculus [4]) was 20%, the Reversal (Mus musculus [5]) was 50% and the Reversal (Mus musculus [6]) was 50%. The Reversal (Mus musculus [7]) was 0% and the Reversal (Mus musculus [8]) was 30%.
With O=C(CCC1CCC(=O)N1)NCc1ccccc1 (stereo unspecified) the Reversal (Mus musculus [6]) was 0%, the Reversal (Mus musculus [7]) was 62% and the Reversal (Mus musculus [8]) was 50%.
O=C1CCC(CCC(=O)OCc2ccc(Cl)cc2)N1 (stereo unspecified) gave a Reversal (Mus musculus [1]) of 0%, a Reversal (Mus musculus [2]) of 25% and a Reversal (Mus musculus [3]) of 42%.
With O=C(O)CCCC1CCC(=O)N1 (stereo unspecified) the Reversal (Mus musculus [1]) was 34%, the Reversal (Mus musculus [2]) was 50% and the Reversal (Mus musculus [3]) was 100%.
Compound O=C1CCCC2CCC(=O)N12 (stereo unspecified) has a Reversal (Mus musculus [4]) of 18%, a Reversal (Mus musculus [5]) of 56% and a Reversal (Mus musculus [6]) of 29%. For the same compound, the Reversal (Mus musculus [7]) was 50% and the Reversal (Mus musculus [8]) was 64%.
In the case of O=C(O)CCC1CCCCC(=O)N1 (stereo unspecified), the Reversal (Mus musculus [1]) is reported as 0%, the Reversal (Mus musculus [2]) is reported as 38% and the Reversal (Mus musculus [3]) is reported as 67%.
O=C1CCC(CCC(=O)OCc2cccc(Cl)c2)N1 (stereo unspecified) gave a Reversal (Mus musculus [1]) of 100%, a Reversal (Mus musculus [2]) of 30% and a Reversal (Mus musculus [3]) of 90%.
Work on O=C(CCC1CCC(=O)N1)Nc1ccncc1 (stereo unspecified) yielded a Reversal (Mus musculus [1]) of 64%, a Reversal (Mus musculus [2]) of 59% and a Reversal (Mus musculus [3]) of 53%.
Compound Cc1cccc(C)c1NC(=O)CCC1CCC(=O)N1 (stereo unspecified) has a Reversal (Mus musculus [1]) of 49%, a Reversal (Mus musculus [2]) of 56% and a Reversal (Mus musculus [3]) of 50%.
For CC(OC(=O)CCC1CCC(=O)N1)c1ccccc1 (stereo unspecified), the Reversal (Mus musculus [1]) was 13%, the Reversal (Mus musculus [2]) was 60% and the Reversal (Mus musculus [3]) was 16%.
With CC(C)N(CCNC(=O)CCC1CCC(=O)N1)C(C)C (stereo unspecified) the Reversal (Mus musculus [6]) was 17%, the Reversal (Mus musculus [7]) was 33% and the Reversal (Mus musculus [8]) was 17%.
For O=C(O)CSC1CCC(=O)N1 (stereo unspecified), the Reversal (Mus musculus [16]) was 21%, the Reversal (Mus musculus [17]) was 64% and the Reversal (Mus musculus [3]) was 31%.
With COC(=O)CCSC1CCC(=O)N1 (stereo unspecified) the Reversal (Mus musculus [16]) was 25%, the Reversal (Mus musculus [17]) was 53% and the Reversal (Mus musculus [3]) was 87%.
With O=C1CCCCC2CCC(=O)N12 (stereo unspecified) the Reversal (Mus musculus [6]) was 14%, the Reversal (Mus musculus [7]) was 9% and the Reversal (Mus musculus [8]) was 36%.
CCOC(=O)CCSC1CCC(=O)N1 (stereo unspecified) showed a Reversal (Mus musculus [16]) of 66%, a Reversal (Mus musculus [17]) of 49% and a Reversal (Mus musculus [3]) of 44%.
For O=C1CCC(CCCC(=O)OCc2ccccc2)N1 (stereo unspecified), the Reversal (Mus musculus [1]) was 70%, the Reversal (Mus musculus [2]) was 24% and the Reversal (Mus musculus [3]) was 43%.
CC1CC2CC(C)C(=O)N2C1=O (stereo unspecified) showed a Reversal (Mus musculus [6]) of 0%, a Reversal (Mus musculus [7]) of 20% and a Reversal (Mus musculus [8]) of 20%.
In the case of O=C1CCC2SCC(=O)N12 (stereo unspecified), the Reversal (Mus musculus [1]) is reported as 31%, the Reversal (Mus musculus [2]) is reported as 0% and the Reversal (Mus musculus [3]) is reported as 0%.
Compound O=C1CCSC2CCC(=O)N12 (stereo unspecified) has a Reversal (Mus musculus [1]) of 19%, a Reversal (Mus musculus [2]) of 51% and a Reversal (Mus musculus [3]) of 55%.
O=C(CCC1CCC(=O)N1)NCCc1ccc(O)cc1 (stereo unspecified) showed a Reversal (Mus musculus [1]) of 20%, a Reversal (Mus musculus [2]) of 0% and a Reversal (Mus musculus [3]) of 0%.
O=C(O)CCC1CCC(=O)N1 (stereo unspecified) gave a Reversal (Mus musculus [4]) of 83%, a Reversal (Mus musculus [5]) of 91% and a Reversal (Mus musculus [6]) of 89%. For the same compound, the Reversal (Mus musculus [15]) was 58%, the Reversal (Mus musculus [7]) was 100% and the Reversal (Mus musculus [8]) was 67%.
Work on O=C1CCC(/C=C/C(=O)OCc2ccccc2)N1 (stereo unspecified) yielded a Reversal (Mus musculus [16]) of 31%, a Reversal (Mus musculus [17]) of 0% and a Reversal (Mus musculus [3]) of 17%.
O=C(O)CC1CCC(=O)N1 (stereo unspecified) gave a Reversal (Mus musculus [1]) of 2%, a Reversal (Mus musculus [2]) of 0% and a Reversal (Mus musculus [3]) of 42%.
In the case of O=C1CCCC2CCCC(=O)N12, the Reversal (Mus musculus [6]) is reported as 33%, the Reversal (Mus musculus [7]) is reported as 44% and the Reversal (Mus musculus [8]) is reported as 55%.
Compound O=C1CCC2CCC(O)N12 (stereo unspecified) has a Reversal (Mus musculus [16]) of 27%, a Reversal (Mus musculus [17]) of 19% and a Reversal (Mus musculus [3]) of 17%.
In the case of O=C1CCC2CCC(=O)N12 [ROLZIRACETAM], the Reversal (Mus musculus [18]) is reported as 19%, the Reversal (Mus musculus [19]) is reported as 85% and the Reversal (Mus musculus [4]) is reported as 27%. It also gave a Reversal (Mus musculus [20]) of 62%, a Reversal (Mus musculus [5]) of 25% and a Reversal (Mus musculus [6]) of 69%. For the same compound, the Reversal (Mus musculus [21]) was 73%, the Reversal (Mus musculus [22]) was 92% and the Reversal (Mus musculus [7]) was 31%. It also gave a Reversal (Mus musculus [8]) of 63%.
